Results: patent US20250136617A1 (The Regents of the University of Colorado, A Body Corporate, priority 2022, published 2025)
Read-outs that look alike come from different tables or passages of the source.

Experiments:
[1] = system: CEM-CCRF human lymphoblast cells; assay: Transwell migration assay in CEM-CCRF lymphoblasts; type: cell-based
Protocol: Thus, to confirm CXCR4 functional activity, UCUF-728 was evaluated in a 96 w transwell migration assay in CEM human lymphoblast cells.
CEM-CCRF (ATCC CCL-119) were suspended in RPMI 1640 (Corning; 10-040-CV) at 5.0×10^5 cells/mL and allowed to incubate in cell culture incubator at 37° C. with 5% CO2 for one hour. […] Plates were reassembled and placed in a cell culture incubator at 37° C. with 5% CO2 for three hours. After incubation, Multi-Screen plate was disassembled and 100 μl of solution was collected from compound receiver tray and transferred to 96 well luminescent plate (Thermo Scientific; 265302) and an equal volume of ATPLite Istep luminescence reagent (Perkin Elmer, Waltham, MA; 6016731) was added to each well. Luminescence was measured using the CLARIOstar Plus (BMG LABTECH Inc., Cary, NC).

CXCR4 = CXCR4 (Homo sapiens, UniProt P61073); assay: β-arrestin recruitment, 384-well, Tango CXCR4-bla U2OS cells, normalized to SDF-1α; type: cell-based; parameters: host or cells: U2OS; conditions: for Emax: U2OS; for ß-arrestin recruitment Emax (%): normalized to maximal SDF-1α response
Chain of CXCR4 (P61073 whole entry): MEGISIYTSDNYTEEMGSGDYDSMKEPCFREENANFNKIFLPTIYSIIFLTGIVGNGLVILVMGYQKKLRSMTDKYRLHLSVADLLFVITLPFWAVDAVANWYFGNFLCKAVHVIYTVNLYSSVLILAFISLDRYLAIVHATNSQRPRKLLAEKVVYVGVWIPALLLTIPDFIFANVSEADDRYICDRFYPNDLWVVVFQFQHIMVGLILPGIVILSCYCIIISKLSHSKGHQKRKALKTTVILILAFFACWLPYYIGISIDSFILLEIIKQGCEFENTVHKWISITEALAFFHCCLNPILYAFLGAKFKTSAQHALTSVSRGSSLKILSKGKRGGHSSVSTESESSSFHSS
Protocol: Tango™ CXCR4-bla U2OS Cells (Invitrogen; K1779) were used for (β-arrestin recruitment assays and maintained as a monolayer culture in McCoy's 5a (Corning; 10-050-CV) supplemented with 10% dialyzed Fetal Bovine Serum (Gibco; 26400-044), 0.1 mM MEM Non-essential amino acids solution, 25 mM HEPES solution (Corning; 25-060-CI), 1 mM Sodium Pyruvate (Gibco; 11360-070), 200 μg/mL Zeocin selection reagent (Gibco; R25001), 50 μg/mL Hygromycin B (Gibco, 10687010), and 100 μg/mL Geneticin (G418 Sulfate) (Gibco, 10131035). U2OS cells were subcultured twice weekly by 0.05% Trypsin-EDTA treatment (Corning; 25-051-CI) and passaged to continue exponential growth phase for cell signaling assays. All cell cultures were maintained in cell culture incubators at 37° C. with 5% CO2. CHO-K1 CXCR4 cells (DiscoverX, Fremont, CA, USA) were used for cAMP inhibition assays and maintained as a monolayer culture in DMEM/F12 (Corning; 10-091-CV) supplemented with 10% Fetal Bovine Serum (Corning; 35-011-CV) and 100IU penicillin, […] streptomycin sulfate (Corning; 30-002-CI) and […] G418 (Gibco; 101310350. Cells were subculture 2 times weekly by o.o5% Trypsin-EDTA treatment (Corning; 25-051-CI) and passaged to continue exponential growth phase for cell signaling assays. All cell cultures were maintained in cell culture incubators at 37° C. with 5% CO2.CEM-CCRF cells (ATCC CCL-119) were used in both the migration and calcium flux assays and were cultured in growth media consisting of RPMI 1640 (Corning; 10-040-CV) supplemented with 10% Fetal Bovine Serum (Corning; 35-011-CV), and 100 IU penicillin, […] streptomycin sulfate (Corning; 30-002-CI). Cells were maintained in suspension and sub-cultured twice weekly to maintain cell densities between 0.8×10^6 cells/mL and 2.5×10^6 cells/mL to maintain exponential growth phase. Cells were harvested for use in migration and calcium flux assays at 2.0×10^6 cells/mL to 2.5×10^6 cells/mL and resuspended in assay media to desired density for respective experiments.
Tango™ CXCR4-bla U2OS Cells were resuspended in assay media consisting of DMEM (Corning; Corning, NY) supplemented with 1% dialyzed Fetal bovine serum, 0.1 mM MEM Non-essential amino acids solution, 25 mM HEPES solution (Corning; Corning, NY), 1 mM Sodium Pyruvate and 100 IU penicillin, […] streptomycin sulfate (Corning; Corning, NY) at a density of 3.0×10^5 cells/ml. Assay media FreeStyle 293 expression Medium (Gibco; 12338018) was used for testing the thiadiazine scaffold CXCR4 agonists. Cells suspension was dispensed at 30 μl per well into assay plate and incubated overnight in a cell culture incubator at 37° C. with 5% CO2. […] Following overnight incubation, LiveBlazer FRET B/G Loading Kit (Invitrogen; K1095) working reagent was prepared according to supplier guidelines and 6 μl of solution was dispensed into each well; 8 μL of solution for testing the thiadiazine scaffold CXCR4 agonists. Assay plate was covered and incubated in a dark place for two hours and Fluorescence Intensity was measured using the BMG LABTECH CLARIOstar Plus (BMG LABTECH Inc., Cary, NC) according to the LiveBlazer FRET B/G Loading Kit excitation and emission measurement guidelines.
Results are expressed as mean±SD for 3 to 5 independent experiments. Statistically significant differences in gene expression between two groups were assessed by Student's T-test, ANOVA with an appropriate post hoc test was be used for multiple comparisons. P<0.05 was considered to be statistically significant. All concentration response curves were analyzed to determine EC50 and Emax using the following equation:
where Y is the normalized response (0-100%), X is the log of concentration of compound tested, and the Hill slope is equal to 1.0% and 100% activity are specific to each assay. […]

[2] = Homo sapiens, read-out: Migration CEM EC50 (μM)
[3] = normalized to SDF-1, read-out: TANGO β-arrestin Emax (%)
[4] = normalized to SDF-1, read-out: TANGO β-arrestin EC50
[5] = Homo sapiens, read-out: Migration CEM EC50
[6] = normalized to SDF-1α, read-out: ß-arrestin recruitment EC50

| Emax (CXCR4; [3]) [%] | EC50 (CXCR4; [4]) [µM] | SMILES | also measured |
| --- | --- | --- | --- |
| 35 to 70 | < 5 | CCOc1ccccc1-c1nnc2n1N=C(c1ccc(OC)c(OC)c1)CS2 [Entry 57] | – |
| > 70 | < 5 | COc1ccccc1-c1nnc2n1N=C(c1ccc(N(C)C)cc1)CS2 [Entry 13] | Emax ([1]; Homo sapiens): 35 to 70%; EC50 [1, 5]: < 5 µM; Emax (CXCR4; read-out: ß-arrestin recruitment Emax (%)): 91%; EC50 (CXCR4; [6]): 0.06 µM |
| 35 to 70 | < 5 | COc1ccc(C2=Nn3c(nnc3-c3ccccc3OC)SC2)c(OC)c1 [Entry 54] | – |
| 35 to 70 | < 5 | CCOC(=O)CCNc1ccc(C2=Nn3c(nnc3-c3ccccc3OCC)SC2)cc1 [Entry 41] | Emax ([1]; Homo sapiens): < 35%; EC50 [1, 5]: < 5 µM |
| 35 to 70 | < 5 | COc1ccccc1-c1nnc2n1N=C(c1ccc(C)cc1)CS2 [Entry 17] | – |
| – | < 5 | CCOC(=O)CNc1ccc(C2=Nn3c(nnc3-c3ccccc3OCC)SC2)cc1 [Entry 40] | Migration CEM Emax (%) [1]: C (C ≤ 35); EC50 ([1]; read-out: Migration CEM EC50): 5 to 50 µM; TANGO β-arrestin Emax (%) (CXCR4; normalized to SDF-1): C (C ≤ 35); EC50 (CXCR4; [6]): > 5 µM |
| – | < 5 | CCOc1ccccc1-c1nnc2n1N=C(c1ccc(NC3CCCCC3)cc1)CS2 [Entry 46] | Migration CEM Emax (%) [1]: C (C ≤ 35); EC50 ([1]; read-out: Migration CEM EC50): < 5 µM; TANGO β-arrestin Emax (%) (CXCR4; normalized to SDF-1): C (C ≤ 35); EC50 (CXCR4; [6]): 0.77 µM; ß-arrestin recruitment Emax (%) (CXCR4): 10% |
| – | < 5 | COc1cc(-c2nnc3n2N=C(c2ccc(Br)cc2)CS3)cc(OC)c1OC [Entry 62] | TANGO β-arrestin Emax (%) (CXCR4; normalized to SDF-1): B (35 < B < 70) |
| 35 to 70 | 5 to 50 | COc1ccc(C2=Nn3c(nnc3-c3ccccc3)SC2)cc1 [Entry 51] | – |
| 35 to 70 | < 5 | CCOc1ccccc1-c1nnc2n1N=C(c1ccc(N3CCC3)cc1)CS2 [Entry 28] | – |
| – | < 5 | COc1ccc(OC)c(-c2nnc3n2N=C(c2ccc(OC)c(OC)c2)CS3)c1 [Entry 56] | TANGO β-arrestin Emax (%) (CXCR4; normalized to SDF-1): B (35 < B < 70) |
| – | < 5 | CCOc1ccccc1-c1nnc2n1N=C(c1ccc(NC(C)=O)cc1)CS2 [Entry 30] | EC50 ([1]; read-out: Migration CEM EC50): > 10 µM; TANGO β-arrestin Emax (%) (CXCR4; normalized to SDF-1): C (C ≤ 35); EC50 (CXCR4; [6]): > 10 µM |
| – | > 10 | CCOc1ccccc1-c1nnc2n1N=C(c1ccc(NCc3ccccc3)cc1)CS2 [Entry 47] | EC50 [1, 5]: > 10 µM |
| > 70 | < 5 | CCOc1ccccc1-c1nnc2n1N=C(c1ccc(NC3CCC3)cc1)CS2 [Entry 44] | – |
| < 35 | < 5 | COc1ccc(OC)c(-c2nnc3n2N=C(c2ccc(N4CCC4)cc2)CS3)c1 [Entry 80] | Emax ([1]; Homo sapiens): 35 to 70%; EC50 [1, 5]: < 5 µM |
| < 35 | < 5 | CCOc1ccccc1-c1nnc2n1N=C(c1ccc(C(=O)Nc3ccccc3)cc1)CS2 [Entry 69] | Emax ([1]; Homo sapiens): 35 to 70%; EC50 [1, 5]: < 5 µM |
| 35 to 70 | < 5 | COc1ccc(C2=Nn3c(nnc3-c3cccc(OC)c3)SC2)cc1 [Entry 60] | – |
| – | – | COc1cccc(C2=Nn3c(nnc3-c3ccccc3OC)SC2)c1 [Entry 85] | EC50 (CXCR4; [6]): 10.7 µM; ß-arrestin recruitment Emax (%) (CXCR4): 40% |
| – | < 5 | COc1ccc(C2=Nn3c(nnc3-c3ccccc3OC)SC2)cc1 [Entry 1] | TANGO β-arrestin Emax (%) (CXCR4; normalized to SDF-1): B (35 < B < 70); EC50 (CXCR4; [6]): 0.054 µM; ß-arrestin recruitment Emax (%) (CXCR4): 45% |
| – | – | CCOc1ccccc1-c1nnc2n1N=C(c1ccc(NCC(=O)O)cc1)CS2 [Entry 40a] | Emax ([1]; Homo sapiens): 23%; EC50 [1, 2]: 0.32 µM |

| Emax (CXCR4; [3]) [%] | EC50 (CXCR4; [4]) [µM] | SMILES | also measured |
| --- | --- | --- | --- |
| – | > 80 | COc1ccc(C2=Nn3c(nnc3-c3ccccc3)SC2)cc1OC [Entry 52] | – |
| 35 to 70 | < 5 | CCc1ccc(C2=Nn3c(nnc3-c3ccccc3OC)SC2)cc1 [Entry 18] | – |
| – | > 10 | CCOc1ccccc1-c1nnc2n1N=C(c1ccc(NC(=O)C(C)C)cc1)CS2 [Entry 31] | EC50 ([1]; read-out: Migration CEM EC50): > 10 µM; EC50 (CXCR4; [6]): > 10 µM |
| – | > 10 | CCOc1ccccc1-c1nnc2n1N=C(c1ccc(C(=O)O)cc1)CS2 [Entry 70] | Emax ([1]; Homo sapiens): 35 to 70%; EC50 [1, 5]: < 5 µM |
| > 70 | 5 to 50 | COc1ccccc1-c1nnc2n1N=C(c1ccc(-c3ccccc3)cc1)CS2 [Entry 20] | – |
| – | > 80 | COc1cc(-c2nnc3n2N=C(c2ccccc2)CS3)cc(OC)c1OC [Entry 61] | – |
| < 35 | < 5 | CCOc1ccccc1-c1nnc2n1N=C(c1ccc(NCC3CC3)cc1)CS2 [Entry 48] | EC50 [1, 5]: > 10 µM |
| – | > 80 | c1ccc(C2=Nn3c(nnc3-c3ccccc3)SC2)cc1 [Entry 50] | – |
| – | – | COc1ccccc1-c1nnc2n1N=C(c1ccc([N+](=O)[O-])cc1)CS2 | EC50 (CXCR4; [6]): > 80 µM |
| – | > 80 | COc1ccc(-c2nnc3n2N=C(c2ccccc2)CS3)cc1 [Entry 59] | – |
| – | > 10 | CCOC(=O)C1CCN(c2ccc(C3=Nn4c(nnc4-c4ccccc4OCC)SC3)cc2)C1 (centres unmarked) [Entry 66] | Migration CEM Emax (%) [1]: B (35 < B < 70); EC50 ([1]; read-out: Migration CEM EC50): < 5 µM; TANGO β-arrestin Emax (%) (CXCR4; normalized to SDF-1): C (C ≤ 35) |
| – | > 10 | CCOc1ccccc1-c1nnc2n1N=C(c1ccc(NC(=O)C3CCCC3)cc1)CS2 [Entry 33] | – |
| – | > 10 | CCOc1ccccc1-c1nnc2n1N=C(c1ccc(N)cc1)CS2 [Entry 26] | – |
| 35 to 70 | < 5 | COc1ccc(C2=Nn3c(nnc3-c3ccccc3OC)SC2)cc1 [Entry 55] | – |
| – | – | CCOc1ccccc1-c1nnc2n1N=C(c1ccc(N3CCCC3)cc1)CS2 [compound 24] | Migration CEM Emax (%) [1]: A (A ≥ 70) |
| > 70 | 5 to 50 | COc1ccccc1-c1nnc2n1N=C(c1ccc(N3CCOCC3)cc1)CS2 [Entry 25] | – |
| – | 5 to 50 | CCCCc1ccc(C2=Nn3c(nnc3-c3ccccc3OC)SC2)cc1 [Entry 19] | TANGO β-arrestin Emax (%) (CXCR4; normalized to SDF-1): C (C ≤ 35); EC50 (CXCR4; [6]): 14.1 µM; ß-arrestin recruitment Emax (%) (CXCR4): 12% |
| – | > 80 | COc1ccccc1-c1nnc2n1N=C(c1ccccc1)CS2 | – |
| – | > 80 | COc1cccc(-c2nnc3n2N=C(c2ccccc2)CS3)c1 [Entry 58] | – |

| SMILES | Emax (CXCR4; [3]) [%] | EC50 (CXCR4; [4]) [µM] | also measured |
| --- | --- | --- | --- |
| CCCCOc1ccc(C2=Nn3c(nnc3-c3ccccc3OC)SC2)cc1 [Entry 5] | < 35 | < 5 | EC50 [1, 2]: > 10 µM |
| CCOc1ccccc1-c1nnc2n1N=C(c1ccc(OC(F)F)cc1)CS2 [Entry 11] | 35 to 70 | < 5 | Emax ([1]; Homo sapiens): > 70%; EC50 [1, 2]: < 5 µM |
| CCOc1ccccc1-c1nnc2n1N=C(c1ccc(N3CCCC3)cc1)CS2 [Entry 14] | > 70 | < 5 | Migration CEM Emax (%) [1]: B (35 < B < 70); EC50 [1, 5]: < 5 µM |
